According to paper PMC3235725 (Biochemistry, 2011):
Where two headings read alike, the source gives them in different places.

Assays:
[1] = test system: BM-3(wt); conditions: 2% (v/v) DMSO, 200 μM substrate, 500 nM enzyme; cited from earlier work
[2] = test system: BM-3(A328V); conditions: 2% (v/v) DMSO, 200 μM substrate, 500 nM enzyme; cited from earlier work
[3] = target: BMP(A328V), heme domain of P450BM-3 A328V mutant (Priestia megaterium, UniProt P14779, A329V); experiment: Substrate dissociation constants by UV-vis spectral titration, A328V heme domain; assay type: binding, Bacillus megaterium; conditions: for Fold Enhancement of substrate affinity, A328V versus wild type: ratio of BMP(wt) KD to BMP(A328V) KD
[4] = target: BM-3(wt), wild-type P450BM-3 (Priestia megaterium, UniProt P14779); experiment: Steady-state turnover, products quantified by GC-MS, wild-type holoenzyme; assay type: biochemical, Bacillus megaterium; conditions: 50 nM enzyme, 250 μM substrate, 50 mM KPi pH 7.4, 25°C
[5] = target: BM-3(A328V), P450BM-3(A328V) (Priestia megaterium, UniProt P14779, A329V); experiment: Steady-state turnover, products quantified by GC-MS, A328V holoenzyme; assay type: biochemical, Bacillus megaterium; conditions: 50 nM enzyme, 250 μM substrate; for BM-3(A328V) turnover rate: 50 mM KPi pH 7.4, 25°C, GC-MS
[6] = target: BMP(wt), heme domain of P450BM-3 (Priestia megaterium, UniProt P14779); assay type: binding, Bacillus megaterium
[7] = target: P450BM-3 wild-type (Priestia megaterium, UniProt P14779); experiment: Regiospecificity of hydroxylation, product distribution by GC/MS, wild type; assay type: biochemical, Bacillus megaterium; conditions: wild-type enzyme, 500 μM substrate, 50 nM enzyme, 250 μM NADPH, run to completion
[8] = target: P450BM-3(A328V) (Priestia megaterium, UniProt P14779, A329V); experiment: Regiospecificity of hydroxylation, product distribution by GC/MS, A328V; assay type: biochemical, Bacillus megaterium; conditions: A328V mutant, 500 μM substrate, 50 nM enzyme, 250 μM NADPH, run to completion
[9] = read-out: BMP(A328V) Dissociation Constant, 50 mM KPi pH 7.4, room temperature, 1 μM P450, UV-vis titration

BMP(A328V), heme domain of P450BM-3 A328V mutant, sequence (P14779 2-472 A329V): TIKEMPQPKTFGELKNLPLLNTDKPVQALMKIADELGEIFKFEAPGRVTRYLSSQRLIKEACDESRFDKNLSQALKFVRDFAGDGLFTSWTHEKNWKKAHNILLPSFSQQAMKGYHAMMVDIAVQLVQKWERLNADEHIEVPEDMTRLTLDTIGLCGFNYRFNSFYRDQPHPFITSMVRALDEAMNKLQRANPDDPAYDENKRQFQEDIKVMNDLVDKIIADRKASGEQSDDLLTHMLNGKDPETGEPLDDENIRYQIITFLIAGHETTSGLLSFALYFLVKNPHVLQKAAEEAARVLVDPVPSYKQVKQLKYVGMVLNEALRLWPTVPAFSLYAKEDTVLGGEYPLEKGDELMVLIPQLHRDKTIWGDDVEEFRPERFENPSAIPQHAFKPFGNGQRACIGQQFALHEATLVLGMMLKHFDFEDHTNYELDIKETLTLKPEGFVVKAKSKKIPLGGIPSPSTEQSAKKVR
BM-3(wt), wild-type P450BM-3, sequence (P14779 whole entry): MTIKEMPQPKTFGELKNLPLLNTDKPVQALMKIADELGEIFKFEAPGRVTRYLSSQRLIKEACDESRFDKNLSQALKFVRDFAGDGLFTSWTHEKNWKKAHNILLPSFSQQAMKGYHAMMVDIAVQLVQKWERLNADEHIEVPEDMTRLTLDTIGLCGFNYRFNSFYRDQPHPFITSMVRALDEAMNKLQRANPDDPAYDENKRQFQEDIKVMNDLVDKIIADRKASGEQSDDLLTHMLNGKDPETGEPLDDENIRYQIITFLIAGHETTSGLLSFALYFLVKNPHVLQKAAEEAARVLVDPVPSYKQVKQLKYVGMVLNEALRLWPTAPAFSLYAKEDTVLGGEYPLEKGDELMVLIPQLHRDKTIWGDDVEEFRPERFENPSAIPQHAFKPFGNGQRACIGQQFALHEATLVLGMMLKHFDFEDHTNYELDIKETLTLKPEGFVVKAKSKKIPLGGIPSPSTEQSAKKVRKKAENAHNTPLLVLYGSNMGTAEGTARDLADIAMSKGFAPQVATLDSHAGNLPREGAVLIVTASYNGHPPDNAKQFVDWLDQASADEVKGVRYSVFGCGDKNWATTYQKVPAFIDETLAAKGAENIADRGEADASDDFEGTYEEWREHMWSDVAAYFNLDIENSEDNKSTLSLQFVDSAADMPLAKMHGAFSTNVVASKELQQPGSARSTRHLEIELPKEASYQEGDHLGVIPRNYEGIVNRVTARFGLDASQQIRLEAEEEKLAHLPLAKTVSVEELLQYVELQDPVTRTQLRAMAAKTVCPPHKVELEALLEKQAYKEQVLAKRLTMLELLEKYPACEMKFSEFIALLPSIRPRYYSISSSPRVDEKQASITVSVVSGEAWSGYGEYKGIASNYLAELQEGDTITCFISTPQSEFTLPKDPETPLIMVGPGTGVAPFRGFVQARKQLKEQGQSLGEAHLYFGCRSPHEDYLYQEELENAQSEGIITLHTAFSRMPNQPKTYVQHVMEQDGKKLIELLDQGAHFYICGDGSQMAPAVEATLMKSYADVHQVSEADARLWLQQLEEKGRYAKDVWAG
BM-3(A328V), P450BM-3(A328V), sequence (P14779 whole entry A329V, the tested form may be a part): as the sequence (P14779 whole entry) above, with A329V counted along it
P450BM-3 wild-type, sequence (P14779 whole entry): as the sequence (P14779 whole entry) above
BMP(wt), heme domain of P450BM-3, sequence (P14779 2-472): as the sequence (P14779 2-472 A329V) above, with V328A counted along it
P450BM-3(A328V), sequence (P14779 whole entry A329V): as the sequence (P14779 whole entry) above, with A329V counted along it

| SMILES | BM-3(wt) turnover rate [1] [μmol/min/μmol] | BM-3(A328V) turnover rate [2] [μmol/min/μmol] | Fold Enhancement of substrate affinity, A328V versus wild type [3] | Kd [3, 9] [µM] | BM-3(wt) turnover rate [4] [μmol/min/μmol] | Fold Enhancement of turnover (rate A328V divided by rate wild type) [5] | BM-3(A328V) turnover rate [5] [μmol/min/μmol] | Kd [6] [µM] | Kd [3] [µM] | ω-2 hydroxy product, percent of total oxidation products [7] [%] | ω-1 hydroxy product, percent of total oxidation products [8] [%] |
| --- | --- | --- | --- | --- | --- | --- | --- | --- | --- | --- | --- |
| CC(=O)CC/C=C(/C)CCC=C(C)C [Nerylacetone] | 155 ± 7 | 338 ± 10 |  |  |  |  |  |  |  |  |  |
| CCCCCCCCCCCCCCCC(=O)N[C@@H](CCC(N)=O)C(=O)O [PalmGln, N-palmitoyl-L-glutamine] |  |  | 2.7 | 0.074 ± 0.005 | 610 ± 25 | 7.4 | 4500 ± 500 |  |  |  |  |
| CCCCCCCCCCCCCCCC(=O)N[C@@H](CCC(=O)O)C(=O)O [PalmGlu, N-palmitoyl-L-glutamate] |  |  | 9.0 | 0.41 ± 0.06 | 485 ± 15 | 8.2 | 3960 ± 280 |  |  |  |  |
| CCCCCCCCCCCCCCCC(=O)NCC(=O)O [PalmGly, N-palmitoylglycine] |  |  | 7.1 | 0.045 ± 0.014 | 1875 ± 30 | 2.9 | 5500 ± 600 |  |  |  |  |
| CCCCCCCCCCCCCCCC(=O)N[C@@H](CC(C)C)C(=O)O [PalmLeu] |  |  |  | < 0.03 | 1155 ± 20 | 3.4 | 3900 ± 320 |  |  |  |  |
| CCCCCCCCCCCCCCCC(=O)N[C@@H](CCSC)C(=O)O [PalmMet, N-palmitoyl-L-methionine] |  |  |  | < 0.03 | 1690 ± 75 | 2.6 | 4400 ± 145 |  |  |  |  |
| CCCCCCCCCCCCCCCC(=O)O [Palmitate, palmitic acid] |  |  | 8.1 |  | 1480 ± 35 | 2.3 | 3355 ± 95 | 1.3 ± 0.17 | 0.16 ± 0.02 | 46 | 72 |
